Here are results for 20 compounds from ChEMBL document CHEMBL5505964, “HDAC/NAMPT dual inhibitors overcome initial drug-resistance in p53-null leukemia cells” (Eur J Med Chem, 2024).

The structures appear in SMILES notation. Some results are limits rather than exact numbers.

The target in assay [1] is T1, Nicotinamide phosphoribosyltransferase (Homo sapiens, UniProt P43490). As to the kind of experiment: Inhibition of NAMPT (unknown origin).
Assay [2] relates to MV4-11. As to the kind of experiment: cells. The following applies: Homo sapiens; for GI50: MV4-11, time 48 hrs; for IC50: MV4-11, 48 h. The format is functional, cell-based.
Assay [3] deals with HL-60. As to the kind of experiment: Antiproliferative activity against p53-null human HL-60 cells assessed as inhibition of cell growth incubated for 48 hrs by resazurin dye based fluorescence analysis. Type of assay: functional.
The test system of assay [4] is Kasumi 1. In words: Antiproliferative activity against human Kasumi 1 cells harboring wild type p53 assessed as induction of cell death incubated for 48 hrs by resazurin dye based fluorescence analysis. The following applies: read-out: LD50 (the source's name). The format is functional.
The nature of assay [5]: Antiproliferative activity against p53-null human PL-21 cells assessed as induction of cell death incubated for 48 hrs by resazurin dye based fluorescence analysis. The format is functional. The note with it: read-out: LD50 (the source's name).
The nature of assay [6]: Antiproliferative activity against p53-null human MONO-MAC-1 cells assessed as induction of cell death incubated for 48 hrs by resazurin dye based fluorescence analysis. The format is functional. The following applies: read-out: LD50 (the source's name).
Assay [7] concerns NB-4. As to the kind of experiment: Antiproliferative activity against p53-null human NB4 cells assessed as induction of cell death incubated for 48 hrs by resazurin dye based fluorescence analysis. The following applies: read-out: LD50 (the source's name). The format is functional.
Assay [8] relates to HL-60. In words: Antiproliferative activity against p53-null human HL-60 cells assessed as induction of cell death incubated for 48 hrs in presence of N-(4-(1-benzoylpiperidin-4-yl)butyl)-3-(pyridin-3-yl)acrylamide by resazurin dye based fluorescence analysis. Type of assay: functional. The note with it: read-out: LD50 (the source's name).
Assay [9] deals with HL-60. As to the kind of experiment: Antiproliferative activity against p53-null human HL-60 cells assessed as induction of cell death incubated for 48 hrs in presence of methyl-4-((1H-pyrrolo[3,2-c]pyridine-2-carboxamido)methyl)benzoate by resazurin dye based fluorescence analysis. The format is functional. The note with it: read-out: LD50 (the source's name).
Assay [10] concerns the target Histone deacetylase 3/Nuclear receptor corepressor 2 (HDAC3/NCoR2) (Homo sapiens, UniProt O15379). In words: Inhibition of C-terminal His-tagged human HDAC3 (1 to 428 residues)/N-terminal GST tagged human NCOR2 (395 to 489 residues) expressed in baculovirus-infected Sf9 cells using Boc-Lys-(acetyl)-AMC as substrate preincubated with enzyme for 1 hr followed by substrate addition and measured after 2 hrs by fluorescence analysis.

Assay [11] deals with T1, Nicotinamide phosphoribosyltransferase. In words: Inhibition of N-terminal GST-tagged human recombinant NAMPT (2 to 491 residues) expressed in Escherichia coli expression system incubated for 30 mins by fluorescence based analysis.
Assay [12] addresses Histone deacetylase 2 (Homo sapiens, UniProt Q92769). As to the kind of experiment: biochemical. The format is cell-based, Sf9.
The target in assay [13] is Histone deacetylase 1 (Homo sapiens, UniProt Q13547). In words: Inhibition of C-terminal 6XHis-tagged/FLAG-tagged full length human recombinant HDAC1 (1 to 482 residues) expressed in baculovirus-infected Sf9 cells using Boc-Lys-(acetyl)-AMC as substrate preincubated with enzyme for 1 hr followed by substrate addition and measured after 2 hrs by fluorescence analysis.
Chain of Histone deacetylase 1 (Q13547 whole entry, the tested form may be a part): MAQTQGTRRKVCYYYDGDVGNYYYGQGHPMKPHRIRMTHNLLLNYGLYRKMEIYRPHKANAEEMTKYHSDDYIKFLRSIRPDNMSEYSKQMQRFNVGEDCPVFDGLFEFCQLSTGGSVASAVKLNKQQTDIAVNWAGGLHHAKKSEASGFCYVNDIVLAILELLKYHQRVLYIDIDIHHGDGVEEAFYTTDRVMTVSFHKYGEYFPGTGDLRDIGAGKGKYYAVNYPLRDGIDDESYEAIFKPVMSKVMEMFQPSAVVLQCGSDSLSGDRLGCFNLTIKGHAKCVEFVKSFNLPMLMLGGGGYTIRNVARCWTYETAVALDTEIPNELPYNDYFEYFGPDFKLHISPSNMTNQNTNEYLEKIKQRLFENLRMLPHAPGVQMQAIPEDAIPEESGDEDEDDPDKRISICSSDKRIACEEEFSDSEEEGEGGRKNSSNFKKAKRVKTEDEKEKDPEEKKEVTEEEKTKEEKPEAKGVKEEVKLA

Chain of Histone deacetylase 2 (Q92769 whole entry, the tested form may be a part): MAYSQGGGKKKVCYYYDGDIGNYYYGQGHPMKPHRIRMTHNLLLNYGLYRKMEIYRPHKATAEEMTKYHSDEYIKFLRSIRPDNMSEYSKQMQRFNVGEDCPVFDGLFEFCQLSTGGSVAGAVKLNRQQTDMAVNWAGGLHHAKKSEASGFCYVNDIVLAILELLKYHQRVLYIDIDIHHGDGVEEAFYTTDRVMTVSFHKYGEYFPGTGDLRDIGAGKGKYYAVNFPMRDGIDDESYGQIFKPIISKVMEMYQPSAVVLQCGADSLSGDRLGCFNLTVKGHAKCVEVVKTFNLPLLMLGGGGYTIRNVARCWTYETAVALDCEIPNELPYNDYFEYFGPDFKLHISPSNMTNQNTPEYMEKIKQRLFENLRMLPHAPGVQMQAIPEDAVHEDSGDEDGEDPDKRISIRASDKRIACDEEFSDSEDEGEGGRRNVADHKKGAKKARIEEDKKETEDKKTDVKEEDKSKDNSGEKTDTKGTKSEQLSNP
Chain of Histone deacetylase 3/Nuclear receptor corepressor 2 (HDAC3/NCoR2) (O15379 whole entry, the tested form may be a part): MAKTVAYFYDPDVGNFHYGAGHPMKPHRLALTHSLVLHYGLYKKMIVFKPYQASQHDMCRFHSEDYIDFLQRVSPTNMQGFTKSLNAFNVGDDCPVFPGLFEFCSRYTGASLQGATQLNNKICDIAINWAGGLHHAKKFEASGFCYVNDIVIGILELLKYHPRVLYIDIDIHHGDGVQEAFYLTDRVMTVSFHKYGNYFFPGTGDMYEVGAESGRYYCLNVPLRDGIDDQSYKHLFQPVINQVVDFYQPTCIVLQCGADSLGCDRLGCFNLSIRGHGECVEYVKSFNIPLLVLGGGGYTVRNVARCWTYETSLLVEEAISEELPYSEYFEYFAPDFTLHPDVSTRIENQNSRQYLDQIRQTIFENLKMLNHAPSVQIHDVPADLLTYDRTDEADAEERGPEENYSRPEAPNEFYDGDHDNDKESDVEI
Chain of Histone deacetylase 3/Nuclear receptor corepressor 2 (HDAC3/NCoR2) (Q9Y618 whole entry, further chain, the tested form may be a part): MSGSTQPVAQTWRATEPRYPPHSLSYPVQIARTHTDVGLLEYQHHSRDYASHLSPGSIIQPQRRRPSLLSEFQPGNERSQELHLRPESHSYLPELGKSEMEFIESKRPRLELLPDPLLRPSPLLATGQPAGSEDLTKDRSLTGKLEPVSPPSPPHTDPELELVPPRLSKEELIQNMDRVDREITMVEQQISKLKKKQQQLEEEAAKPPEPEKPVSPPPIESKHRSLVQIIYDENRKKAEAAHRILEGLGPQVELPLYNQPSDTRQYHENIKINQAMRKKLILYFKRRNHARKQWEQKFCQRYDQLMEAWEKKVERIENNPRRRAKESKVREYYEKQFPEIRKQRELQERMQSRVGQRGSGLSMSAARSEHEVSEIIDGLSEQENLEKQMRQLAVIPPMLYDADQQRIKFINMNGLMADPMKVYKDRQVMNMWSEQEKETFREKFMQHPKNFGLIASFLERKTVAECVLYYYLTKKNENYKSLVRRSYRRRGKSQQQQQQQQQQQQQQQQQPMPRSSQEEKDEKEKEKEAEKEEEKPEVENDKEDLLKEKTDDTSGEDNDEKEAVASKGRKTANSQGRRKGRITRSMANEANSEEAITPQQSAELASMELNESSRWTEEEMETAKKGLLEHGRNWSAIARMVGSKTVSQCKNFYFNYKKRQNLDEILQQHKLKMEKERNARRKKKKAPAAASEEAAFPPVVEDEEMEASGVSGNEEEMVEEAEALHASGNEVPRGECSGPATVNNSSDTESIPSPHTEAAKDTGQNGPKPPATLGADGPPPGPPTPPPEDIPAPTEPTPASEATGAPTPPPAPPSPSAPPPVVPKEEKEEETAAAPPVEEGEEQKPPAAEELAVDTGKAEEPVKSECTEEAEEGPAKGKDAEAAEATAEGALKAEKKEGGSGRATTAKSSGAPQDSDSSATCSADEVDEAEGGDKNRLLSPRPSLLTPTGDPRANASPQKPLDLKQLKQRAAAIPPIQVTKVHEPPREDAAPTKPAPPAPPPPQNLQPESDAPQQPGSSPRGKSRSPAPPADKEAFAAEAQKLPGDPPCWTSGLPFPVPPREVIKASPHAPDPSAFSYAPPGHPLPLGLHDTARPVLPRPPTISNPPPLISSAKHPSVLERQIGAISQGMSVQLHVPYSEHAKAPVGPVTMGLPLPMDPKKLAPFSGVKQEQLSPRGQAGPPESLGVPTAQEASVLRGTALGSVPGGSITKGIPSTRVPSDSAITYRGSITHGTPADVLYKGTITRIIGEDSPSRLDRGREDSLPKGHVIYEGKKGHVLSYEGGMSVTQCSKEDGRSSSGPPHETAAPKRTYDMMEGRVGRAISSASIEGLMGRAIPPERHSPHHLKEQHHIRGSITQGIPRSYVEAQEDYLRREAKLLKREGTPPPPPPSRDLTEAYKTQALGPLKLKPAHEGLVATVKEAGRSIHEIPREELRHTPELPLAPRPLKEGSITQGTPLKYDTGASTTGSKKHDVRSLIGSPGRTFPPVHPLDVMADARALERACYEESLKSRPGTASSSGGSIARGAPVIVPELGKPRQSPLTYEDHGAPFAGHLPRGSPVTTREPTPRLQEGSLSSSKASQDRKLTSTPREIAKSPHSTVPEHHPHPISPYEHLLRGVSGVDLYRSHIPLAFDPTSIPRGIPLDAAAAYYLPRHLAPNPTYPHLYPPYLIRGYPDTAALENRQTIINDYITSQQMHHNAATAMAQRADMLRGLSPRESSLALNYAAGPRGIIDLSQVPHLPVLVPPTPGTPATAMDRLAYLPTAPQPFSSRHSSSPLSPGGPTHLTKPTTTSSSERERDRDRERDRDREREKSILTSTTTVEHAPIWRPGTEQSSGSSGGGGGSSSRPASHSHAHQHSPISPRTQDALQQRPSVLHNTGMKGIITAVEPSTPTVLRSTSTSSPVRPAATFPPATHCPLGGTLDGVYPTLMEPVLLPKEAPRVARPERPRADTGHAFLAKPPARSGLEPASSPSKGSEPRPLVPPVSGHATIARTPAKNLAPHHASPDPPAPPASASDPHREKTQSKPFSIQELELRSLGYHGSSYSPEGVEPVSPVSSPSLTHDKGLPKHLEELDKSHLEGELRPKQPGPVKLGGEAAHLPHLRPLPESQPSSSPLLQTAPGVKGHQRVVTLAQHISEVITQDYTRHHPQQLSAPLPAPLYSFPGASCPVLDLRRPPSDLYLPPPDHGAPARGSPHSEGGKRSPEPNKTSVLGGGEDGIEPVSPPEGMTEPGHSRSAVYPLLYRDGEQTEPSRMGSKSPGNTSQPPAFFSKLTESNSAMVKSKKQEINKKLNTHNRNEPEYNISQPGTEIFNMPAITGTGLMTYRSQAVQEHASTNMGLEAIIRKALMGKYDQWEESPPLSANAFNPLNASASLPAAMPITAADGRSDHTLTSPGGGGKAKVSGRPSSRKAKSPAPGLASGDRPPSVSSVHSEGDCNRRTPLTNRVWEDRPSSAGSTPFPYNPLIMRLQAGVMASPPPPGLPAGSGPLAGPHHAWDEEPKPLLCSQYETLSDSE
T1 sequence (P43490 whole entry): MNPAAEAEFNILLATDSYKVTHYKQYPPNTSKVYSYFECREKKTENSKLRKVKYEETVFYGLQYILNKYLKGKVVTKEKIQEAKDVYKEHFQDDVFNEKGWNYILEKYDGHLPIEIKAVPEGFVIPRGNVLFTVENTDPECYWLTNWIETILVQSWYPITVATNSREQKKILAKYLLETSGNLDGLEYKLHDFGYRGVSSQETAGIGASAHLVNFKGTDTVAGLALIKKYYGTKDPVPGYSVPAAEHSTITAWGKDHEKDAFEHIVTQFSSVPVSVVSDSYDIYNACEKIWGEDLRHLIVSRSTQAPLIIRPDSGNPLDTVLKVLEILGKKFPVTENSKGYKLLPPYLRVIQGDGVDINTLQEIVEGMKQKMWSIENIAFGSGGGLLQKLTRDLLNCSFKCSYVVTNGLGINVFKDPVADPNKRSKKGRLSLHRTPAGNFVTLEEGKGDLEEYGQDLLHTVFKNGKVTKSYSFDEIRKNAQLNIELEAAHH

Consider `Cc1ncsc1C(=O)N1CCC(CCCCNC(=O)c2cc3cnccc3[nH]2)CC1`, for which the half-inhibitory concentration (IC50) in [1] stood at 0.005 µM.

For the compound `CCCNNC(=O)c1ccc(CNC(=O)/C=C/c2ccccc2)cc1`, the GI50 amounted to 0.016 µM in assay [2] and 0.121 µM in assay [3]. The CC50 is above 100 µM in [4]; above 100 µM in assay [5]; above 100 µM in [6]; above 100 µM in assay [7]; 0.614 µM in assay [8]; 0.0678 µM in [9].

On to `CCCNNC(=O)c1ccc(CNC(=O)c2cc3ccccc3o2)cc1`, for which the IC50 in [10] was 0.00043 µM.

For `CCCNNC(=O)c1ccc(CNC(=O)c2cc3ccccc3[nH]2)cc1`, the GI50 in assay [2] was 0.0373 µM; in [3] it was 0.0696 µM. The CC50 was 0.284 µM in assay [4], above 100 µM in assay [5], above 100 µM in assay [6] and above 100 µM in assay [7].

Consider `CCCNNC(=O)c1ccc(NC(=O)CCCCCCCNC(=O)/C=C/c2cccnc2)cc1`, for which the IC50 is above 20 µM in assay [11] and 0.174 µM in assay [2].

As for `CCCNNC(=O)CCCCCCNC(=O)/C=C/c1cccnc1`, the 50% inhibitory concentration (IC50) in assay [11] was determined as 0.261 µM; in [2], 0.434 µM.

Consider `CCCNNC(=O)c1ccc(CNC(=O)CCCCCCCNC(=O)/C=C/c2cccnc2)cc1`, for which the IC50 turned out to be 0.489 µM in assay [11] and 2.19 µM in assay [2].

In assay [10], `CCCNNC(=O)c1ccc(CNC(=O)c2cc3cnccc3s2)cc1` registered a half-inhibitory concentration (IC50) of 0.00201 µM.

Turning to `CCCNNC(=O)c1ccc(CNC(=O)CCCCCCNC(=O)/C=C/c2cccnc2)cc1`, the concentration for half-maximal inhibition (IC50) amounted to 0.261 µM in assay [11] and 2.23 µM in assay [2].

For the compound `CCCNNC(=O)c1ccc(NC(=O)CCCCCCNC(=O)/C=C/c2cccnc2)cc1`, the half-inhibitory concentration (IC50) in [11] was above 20 µM; in assay [2], 0.0524 µM.

On to `CCCNNC(=O)CCNC(=O)/C=C/c1cccnc1`, for which the IC50 in assay [12] is above 10 µM; in [11], above 20 µM; in [2], above 50 µM.

As for `CCCNNC(=O)c1ccc(CNC(=O)/C=C/c2ccncc2)cc1`, the concentration for half-maximal inhibition (IC50) in [11] was above 20 µM; in [2], 0.0677 µM.

For `COC(=O)c1ccc(CNC(=O)c2cc3cnccc3[nH]2)cc1`, the half-maximal inhibitory concentration (IC50) in [13] is above 20 µM; in assay [12], above 20 µM; in assay [10], above 20 µM; in assay [11], 6.87 µM; in assay [2] it was above 50 µM.

With `CCCNNC(=O)CCCCNC(=O)/C=C/c1cccnc1`, the results for the 50% inhibitory concentration (IC50) in assay [11] and in assay [2] were above 20 µM and 0.901 µM, respectively.

For `CCCNNC(=O)c1ccc(CNC(=O)/C=C/c2ccccn2)cc1`, the values for the concentration for half-maximal inhibition (IC50) in assay [11] and in assay [2] were above 20 µM and 0.0852 µM, respectively.

Take `CCCNNC(=O)c1ccc(CNC(=O)c2cc3cnccc3o2)cc1`: the values for the IC50 in [13], in assay [12] and in [10] were 0.0055 µM, 0.0194 µM and 0.00182 µM, respectively.

Take `CCCNNC(=O)CCCCCCCNC(=O)/C=C/c1cccnc1`: the IC50 is above 20 µM in [11] and 0.667 µM in assay [2].

Take `CCCNNC(=O)CCCCCCNC(=O)c1cc2cnccc2[nH]1`: the IC50 in [2] was determined as 0.0877 µM.

For the compound `O=C(/C=C/c1cccnc1)NCCCCC1CCN(C(=O)c2ccccc2)CC1` [DAPORINAD], the IC50 was above 10 µM in [13], above 10 µM in assay [12], above 10 µM in [10] and 0.0153 µM in assay [2]. In assay [3], the concentration for 50% growth inhibition (GI50) stood at 0.0121 µM.

Turning to `O=C(CCCCCCC(=O)Nc1ccccc1)NO` [VORINOSTAT], the half-inhibitory concentration (IC50) in assay [11] was above 20 µM.
